US20240390383A1, “DIOXAZINES AND THEIR USE IN TREATMENT OF GBA-RELATED DISEASES” (ZEVRA DENMARK A/S, priority 2021, published 2024)
Values belong to the compound of their own block, whether it stands above or below them.

Biological target: T1, GCase (GBA) in human fibroblast cell line GM10915 harboring the L444P GBA mutation (Homo sapiens, UniProt P04062, L483P)
T1 construct: Human fibroblast cell line GM10915 harboring the L444P GBA mutation; host or cells: GM10915 human fibroblasts
T1 sequence (P04062 40-536 L483P): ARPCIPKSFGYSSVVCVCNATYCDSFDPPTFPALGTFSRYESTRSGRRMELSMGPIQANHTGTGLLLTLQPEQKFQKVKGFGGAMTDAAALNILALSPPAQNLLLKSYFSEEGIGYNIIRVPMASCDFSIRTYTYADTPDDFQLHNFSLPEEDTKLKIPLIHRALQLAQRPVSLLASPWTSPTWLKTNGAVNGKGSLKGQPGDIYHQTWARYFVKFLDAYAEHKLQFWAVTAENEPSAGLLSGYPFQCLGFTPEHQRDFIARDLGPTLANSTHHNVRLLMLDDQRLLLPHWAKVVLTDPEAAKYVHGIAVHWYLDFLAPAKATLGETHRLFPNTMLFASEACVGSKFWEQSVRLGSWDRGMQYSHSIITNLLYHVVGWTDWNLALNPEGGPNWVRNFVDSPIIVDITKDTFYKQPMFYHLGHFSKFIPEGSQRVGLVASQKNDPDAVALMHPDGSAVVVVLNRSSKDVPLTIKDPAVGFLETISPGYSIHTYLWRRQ
Experiment: GCase activity assay (4-MUG substrate, normalised to crystal violet staining) in L444P GBA fibroblasts
Assay type: cell-based
Details: 5 days exposure; for GBA EC1.5: concentration giving 150% GCase activity (1.5-fold induction), 8-point dose range; for Emax / GBA Emax: maximum percent GCase activity relative to untreated cells in the dose range tested
Procedure, shortened: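 Patient fibroblasts GM10915 (L444P GBA) exposed to compounds for five days over an 8-point range, with fresh dosing every 2–3 days. Intact-cell GCase measured with 2.5 mM 4-MUG at pH 4.0 for 23 h at 37 °C (ex/em 365/445 nm), normalised to crystal violet, as % of PBS basal; Emax is the maximum reached.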

GBA EC1.5: 50 µM | Emax: 107%
SMILES: Nc1ccc(N2CCC(C3=NOCC(CN4CCCCC4)O3)CC2)nc1 (centres unmarked) [compound 679]

GBA EC1.5: 50 µM | Emax: 113%
SMILES: CC(=O)N1CCC(C2=NOCC(CN3CCCCC3)O2)CC1 (centres unmarked) [compound 683]

GBA EC1.5: 50 µM | Emax: 109%
SMILES: CN(C)C(=O)N1CCC(C2=NOCC(CN3CCCCC3)O2)CC1 (centres unmarked) [compound 684]

GBA EC1.5: 50 µM | Emax: 107%
SMILES: CC(=O)N1CCCC1C1=NOCC(CN2CCCCC2)O1 (centres unmarked) [compound 692]

GBA EC1.5: 50 µM | Emax: 112%
SMILES: c1cnc(N2CCC(C3=NOCC(CN4CCCCC4)O3)C2)nc1 (centres unmarked) [compound 693]

GBA EC1.5: 50 µM | Emax: 115%
SMILES: CN(C)C(=O)N1CCCC1C1=NOCC(CN2CCCCC2)O1 (centres unmarked) [compound 694]

GBA EC1.5: 50 µM | Emax: 110%
SMILES: COc1cc(C)c(CC2(C3=NOCC(CN4CCCCC4)O3)CCNCC2)cn1 (centres unmarked) [compound 702]

GBA EC1.5: 50 µM | Emax: 117%
SMILES: O[C@@H]1CC[C@@H](C2=NOCC(CN3CCCCC3)O2)C1 (some centres unmarked) [compound 704]

GBA EC1.5: 5 µM | Emax: 175%
SMILES: COc1cc(OC)c(CNCCC2=NOCC(CN3CCCCC3)O2)cn1 (centres unmarked) [compound 829]

GBA EC1.5: 2 µM | Emax: 311%
SMILES: c1cnn(C2(C3=NOCC(CN4CCCCC4)O3)CCNCC2)c1 (centres unmarked) [compound 848]

GBA EC1.5: 4 µM | Emax: 203%
SMILES: COc1ccc(C2(C3=NOCC(CN4CCCCC4)O3)CCNCC2)nc1 (centres unmarked) [compound 852]

GBA EC1.5: 2 µM | Emax: 134%
SMILES: c1cc(C2CCCNC2)ccc1C1=NOCC(CN2CCCCC2)O1 (centres unmarked) [compound 856]

GBA EC1.5: 15 µM | Emax: 212%
SMILES: C1CCN(CC2CON=C(C3CC4CNCC3O4)O2)CC1 (centres unmarked) [compound 862]

GBA EC1.5: 6 µM | Emax: 253%
SMILES: C1CCN(CC2CON=C(CC3CNCCO3)O2)CC1 (centres unmarked) [compound 863]

GBA EC1.5: 5 µM | Emax: 219%
SMILES: C[C@]1(C2=NOC[C@H](CN3CCCCC3)O2)CCCNC1 [compound 881]

GBA EC1.5: 5 µM | Emax: 214%
SMILES: C[C@@]1(C2=NOC[C@H](CN3CCCCC3)O2)CCCNC1 [compound 882]

GBA EC1.5: 7 µM | Emax: 201%
SMILES: C[C@@]1(C2=NOC[C@@H](CN3CCCCC3)O2)CCCNC1 [compound 883]

GBA EC1.5: 5 µM | Emax: 233%
SMILES: C[C@@H]1ON=C(C2(C)CCNCC2)O[C@H]1CN1CCCCC1 [compound 887]

GBA EC1.5: 8 µM | Emax: 168%
SMILES: C1CCN(CCC2=NOC[C@@H](CN3CCCCC3)O2)CC1 [compound 890]

GBA EC1.5: 15 µM | Emax: 209%
SMILES: C1CCN(CCC2=NOC[C@H](CN3CCCCC3)O2)CC1 [compound 891]

Further lines, the compound ahead of its results:

SMILES: CN1CCN(CC2CON=C(C3(Cc4cccnc4)CCNCC3)O2)CC1 (centres unmarked) [compound 686]
GBA EC1.5: 50 µM | Emax: 97%

SMILES: Nc1ccc(N2CCCC(C3=NOCC(CN4CCCCC4)O3)C2)nc1 (centres unmarked) [compound 687]
GBA EC1.5: 50 µM | Emax: 110%

SMILES: COC1CC(C2=NOCC(CN3CCCCC3)O2)CN(C)C1 (centres unmarked) [compound 689]
GBA EC1.5: 50 µM | Emax: 137%

SMILES: CN1CCCC1C1=NOCC(CN2CCCCC2)O1 (centres unmarked) [compound 695]
GBA EC1.5: 50 µM | Emax: 111%

SMILES: NC(=O)N1CCC(C2=NOCC(CN3CCCCC3)O2)C1 (centres unmarked) [compound 697]
GBA EC1.5: 50 µM | Emax: 107%

SMILES: Nc1ccc(N2CCC(C3=NOCC(CN4CCCCC4)O3)C2)nc1 (centres unmarked) [compound 698]
GBA EC1.5: 50 µM | Emax: 137%

SMILES: COc1ccc(CC2(C3=NOCC(CN4CCCCC4)O3)CCNCC2)c(C)n1 (centres unmarked) [compound 703]
GBA EC1.5: 50 µM | Emax: 113%

SMILES: NC(=O)N1CCCC(C2=NOCC(CN3CCCCC3)O2)C1 (centres unmarked) [compound 717]
GBA EC1.5: 50 µM | Emax: 111%

SMILES: C[C@H](N)C(=O)N1CCCC(C2=NOCC(CN3CCCCC3)O2)C1 (stereo partly drawn) [compound 718, rac-(2S)-2-amino-1-(3-(5-(piperidin-1-ylmethyl)-5,6-dihydro-1,4,2-dioxazin-3-yl)piperidin-1-yl)propan-1-one]
GBA EC1.5: 17 µM | Emax: 341%

SMILES: CN1CCC(C2=NOCC(C)(CN3CCCCC3)O2)CC1 (centres unmarked) [compound 870]
GBA EC1.5: 6 µM | Emax: 217%

SMILES: c1nc(C2CCNCC2)sc1C1=NOCC(CN2CCCCC2)O1 (centres unmarked) [compound 874]
GBA EC1.5: 5 µM | Emax: 194%

SMILES: c1nc(C2CCCNC2)sc1C1=NOCC(CN2CCCCC2)O1 (centres unmarked) [compound 875]
GBA EC1.5: 5 µM | Emax: 165%

SMILES: c1sc(C2CCCNC2)nc1C1=NOCC(CN2CCCCC2)O1 (centres unmarked) [compound 876]
GBA EC1.5: 4 µM | Emax: 180%

SMILES: c1sc(C2CCNCC2)nc1C1=NOCC(CN2CCCCC2)O1 (centres unmarked) [compound 878]
GBA EC1.5: 3 µM | Emax: 231%

SMILES: C[C@]1(C2=NOC[C@@H](CN3CCCCC3)O2)CCCNC1 [compound 884]
GBA EC1.5: 6 µM | Emax: 207%

SMILES: CC1(C2=NOC[C@@H](CN3CCCCC3)O2)CCNCC1 [compound 886]
GBA EC1.5: 7 µM | GBA Emax: 203%

SMILES: CC1(C2=NOC[C@@H](CN3CCCCC3)O2)CCNCC1 [compound 892]
GBA EC1.5: 13 µM | GBA Emax: 274%
